{
  "source": "ChEMBL document CHEMBL1137965",
  "about": "“Crucial role of the peroxyketal function for antimalarial activity in the G-factor series” (Bioorg Med Chem Lett, 2004)",
  "data": [
    {"test_system": "Plasmodium falciparum", "assay": "In vitro inhibition of Plasmodium falciparum in [3H]hypoxanthine incorporation assay", "type": "functional, organism-based", "units": {"IC50": "µM"}, "values": [
      {"compound": "CC1(C)C(=O)C2=C(OO[C@]3(C)CO[C@H]23)C(C)(C)C1=O", "IC50": "> 100"},
      {"compound": "CC1(C)C(=O)C2=C[C@](C)(CO)OO[C@]2(O)C(C)(C)C1=O", "IC50": "> 100"},
      {"compound": "CO[C@]12OO[C@@](C)(CO[Si](c3ccccc3)(c3ccccc3)C(C)(C)C)C=C1C(=O)C(C)(C)C(=O)C2(C)C", "IC50": 1.5},
      {"compound": "CO[C@]12OOC(C)(C)C=C1C(=O)C(C)(C)C(=O)C2(C)C", "IC50": 0.28},
      {"compound": "CO[C@]12OO[C@](C)(CO)C=C1C(=O)C(C)(C)C(=O)C2(C)C", "IC50": 40},
      {"compound": "CC(=O)OC12OOC(C)(C)C=C1C(=O)C(C)(C)C(=O)C2(C)C", "note": "(configuration not stated)", "IC50": 20.5},
      {"compound": "CC1(C)C(=O)C2=C[C@@](C)(CO)OO[C@]2(O)C(C)(C)C1=O", "IC50": "> 100"},
      {"compound": "CC1(C)C=C2C(=O)C(C)(C)C(=O)C(C)(C)C2(F)OO1", "note": "(configuration not stated)", "IC50": "> 100"},
      {"compound": "CC1(C)C=C2C(=O)C(C)(C)C(=O)C(C)(C)[C@@]2(O)OO1", "IC50": 36},
      {"compound": "CO[C@]12OO[C@](C)(CO[Si](c3ccccc3)(c3ccccc3)C(C)(C)C)C=C1C(=O)C(C)(C)C(=O)C2(C)C", "IC50": 1.4},
      {"compound": "CO[C@]12OO[C@@](C)(CO)C=C1C(=O)C(C)(C)C(=O)C2(C)C", "IC50": 1.4},
      {"compound": "C[C@@H]1CC[C@H]2[C@@H](C)C(=O)O[C@@H]3O[C@@]4(C)CC[C@@H]1[C@]32OO4", "note": "[ARTEMISININ]", "IC50": 0.015}
    ]}
  ]
}
